Patent US11046691B1 (IDEAYA BIOSCIENCES, INC., priority 2018, dated 2021)

Each molecule was assayed against hMAT2A (Homo sapiens (Human), UniProt P31153) (assay: Phosphate Sensor Fluorescence Assay (MAT2A enzyme inhibition)). Conditions: L-methionine 500 uM, ATP 500 uM, class symbols.
Type: biochemical
Method in brief: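 Recombinant MAT2A preincubated 15 min at room temperature with compound, then reacted 1 h at room temperature with 500 uM L-methionine and 500 uM ATP in Tris pH 7.5 buffer containing PNP/7-MEG.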

Chain of hMAT2A (P31153 whole entry): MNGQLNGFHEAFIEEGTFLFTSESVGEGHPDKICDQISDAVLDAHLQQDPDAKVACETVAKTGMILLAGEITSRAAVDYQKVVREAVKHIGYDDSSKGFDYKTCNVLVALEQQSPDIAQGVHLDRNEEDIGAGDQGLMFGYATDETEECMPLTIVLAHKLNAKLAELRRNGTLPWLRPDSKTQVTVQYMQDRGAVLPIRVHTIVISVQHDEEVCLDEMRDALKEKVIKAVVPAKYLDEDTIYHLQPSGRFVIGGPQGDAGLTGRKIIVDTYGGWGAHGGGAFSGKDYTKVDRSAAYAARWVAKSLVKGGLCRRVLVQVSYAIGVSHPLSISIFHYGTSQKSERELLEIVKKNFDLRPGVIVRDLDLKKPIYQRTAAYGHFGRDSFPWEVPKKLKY

SMILES | IC50
Cc1nc(=O)n(-c2ccccc2)c2cc(Cl)ccc12 [Example 242, 7-chloro-4-methyl-1-phenylhydro-quinazolin-2-one] | 500 to 1000 nM
[2H]C([2H])([2H])Nc1nc(=O)n(-c2ccccc2Br)c2cc(Cl)ccc12 [Example 368, 1-(2-bromophenyl)-7-chloro-4-((methyl-d3)amino)quinazolin-2(1H)-one] | < 200 nM
COc1nc(=O)n(-c2ccccc2)c2nc(C)ccc12 [Example 396, 4-methoxy-7-methyl-1-phenylpyrido-[2,3-d]pyrimidin-2(1H)-one] | 200 to 500 nM
CNc1nc(=O)n(-c2ccccc2C#N)c2cc(Cl)ccc12 [Example 219, 2-(7-chloro-4-(methylamino)-2-oxo-quinazolin-1(2H)-yl)benzonitrile] | 200 to 500 nM
CNc1nc(=O)n(-c2ccccc2C)c2nc(C(F)(F)F)ccc12 [Example 180, 4-(methylamino)-1-(2-methylphenyl)-7-(trifluoromethyl)pyrido[2,3-d]pyrimidin-2(1H)-one] | < 200 nM
CCc1nc(=O)n(-c2ccccc2)c2cc(Cl)ccc12 [Example 105, 7-chloro-4-ethyl-1-phenylhydro-quinazolin-2-one] | 200 to 500 nM
CN(C)C(=O)C1CN(c2nc(=O)n(-c3ccccc3)c3cc(Cl)ccc23)C1 [Example 159, [1-(7-chloro-2-oxo-1-phenylhydro-quinazolin-4-yl)azetidin-3-yl]-N,N-dimethylcarboxamide] | < 200 nM
CNc1nc(=O)n(-c2ccccc2Cl)c2cc(C3CC3)cc(OC(F)F)c12 [Example 406, 5-(difluoromethoxy)-1-(2-chlorophenyl)-7-cyclopropyl-4-(methylamino)hydro-quinazolin-2-one] | 200 to 500 nM
Nc1nc(=O)n(-c2ccccc2)c2cc(Cl)cc(Cl)c12 [Example 383, 4-amino-5,7-dichloro-1-phenyl-hydroquinazolin-2-one] | 500 to 1000 nM
CNc1nc(=O)n(-c2ccccc2)c2cc(Cl)cc(OCCO)c12 [Example 185, 7-chloro-5-(2-hydroxyethoxy)-4-(methylamino)-1-phenylhydro-quinazolin-2-one] | < 200 nM
CCc1ccc2c(NC)nc(=O)n(-c3ccccc3)c2c1 [Example 115, 7-ethyl-4-(methylamino)-1-phenylhydro-quinazolin-2-one] | < 200 nM
CN(CC(F)(F)F)c1nc(=O)n(-c2ccccc2)c2cc(Cl)ccc12 [Example 237, 7-chloro-4-[methyl(2,2,2-trifluoroethyl)-amino]-1-phenylhydroquinazolin-2-one] | < 200 nM
COC(=O)C1CN(c2nc(=O)n(-c3ccccc3)c3cc(Cl)ccc23)C1 [Example 199, methyl 1-(7-chloro-2-oxo-1-phenyl-1,2-dihydroquinazolin-4-yl)azetidine-3-carboxylate] | < 200 nM
Cc1ncccc1-n1c(=O)nc(N)c2ccc(C(F)(F)F)cc21 [Example 285] | < 200 nM
O=c1nc(N2CC[C@@H](O)C2)c2ccc(Cl)cc2n1-c1ccccc1Cl (atropisomer, axis not shown) [Example 135, 4-((3R)-3-hydroxypyrrolidin-1-yl)-7-chloro-1-(2-chlorophenyl)hydro-quinazolin-2-one] | < 200 nM
CC1CCN1c1nc(=O)n(-c2ccccc2)c2cc(Cl)ccc12 (centres unmarked) [Example 223, 7-chloro-4-(2-methylazetidin-1-yl)-1-phenylhydroquinazolin-2-one] | < 200 nM
CNc1nc(=O)n(-c2cccnc2)c2cc(C(F)(F)F)ccc12 [Example 341, 4-(methylamino)-1-(pyridin-3-yl)-7-(trifluoromethyl)hydroquinazolin-2-one] | < 200 nM
O=c1nc(N[C@H]2C[C@](O)(C(F)(F)F)C2)c2ccc(C(F)(F)F)nc2n1-c1ccccc1Cl [Example 275, 4-{[(cis)-3-hydroxy-3-(trifluoromethyl)-cyclobutyl]amino}-1-(2-chlorophenyl)-7-(trifluoromethyl)pyrido[2,3-d]-pyrimidin-2(1H)-one] | 500 to 1000 nM
CNc1nc(=O)n(-c2nc(C)cs2)c2cc(Cl)ccc12 [Example 117, 7-chloro-1-(4-methyl(1,3-thiazol-2-yl))-4-(methylamino)hydroquinazolin-2-one] | 1000 to 10000 nM

Now from value to molecule:

IC50 | SMILES
< 200 nM | O=c1nc(N2CC[C@H]2CO)c2ccc(Cl)cc2n1-c1ccccc1 [Example 172, (S)-7-chloro-4-(2-(hydroxymethyl)-azetidin-1-yl)-1-phenylquinazolin-2(1H)-one]
< 200 nM | O=c1nc(NC23CC(O)(C2)C3)c2ccc(C(F)(F)F)nc2n1-c1ccccc1Cl [Example 297, 1-(2-chlorophenyl)-4-[(3-hydroxy-bicyclo[1.1.1]pentyl)amino]-7-(trifluoro-methyl)-pyrido[2,3-d]pyrimidin-2(1H)-one]
< 200 nM | C[C@]1(O)C[C@@H](Nc2nc(=O)n(-c3ccccc3Cl)c3nc(C(F)(F)F)ccc23)C1 [Example 268, 1-(2-chlorophenyl)-4-(((1s,3s)-3-hydroxy-3-methylcyclobutyl)amino)-7-(trifluoromethyl)pyrido[2,3-d]pyrimidin-2(1H)-one]
< 200 nM | N#Cc1cccc(-n2c(=O)nc(N3CC[C@@H](O)C3)c3ccc(C(F)(F)F)cc32)c1 [Example 141]
< 200 nM | Cc1ccncc1-n1c(=O)[nH]c(=O)c2ccc(C(F)(F)F)nc21 [Example 365, 1-(4-methylpyridin-3-yl)-7-(trifluoro-methyl)pyrido[2,3-d]pyrimidine-2,4(1H,3H)-dione]
< 200 nM | O=c1nc(NCC(F)F)c2ccc(C(F)(F)F)cc2n1-c1ncccn1 [Example 122, 4-[(2,2-difluoroethyl)amino]-1-pyrimidin-2-yl-7-(trifluoromethyl)hydro-quinazolin-2-one]
< 200 nM | O=c1nc(N[C@H]2C[C@@H]2F)c2ccc(OC(F)(F)F)cc2n1-c1ccccc1Cl [Example 418, 1-(2-chlorophenyl)-4-(((1S,2S)-2-fluorocyclopropyl)amino)-7-(trifluoro-methoxy)quinazolin-2(1H)-one]
< 200 nM | O=c1nc(NCC(F)F)c2ccc(C(F)(F)F)cc2n1-c1cccnc1 [Example 325, 4-[(2,2-difluoroethyl)amino]-1-(pyridin-3-yl)-7-(trifluoromethyl)hydro-quinazolin-2-one]
< 200 nM | O=c1nc(N2CC[C@@H](O)C2)c2ccc(C(F)(F)F)cc2n1-c1ccccc1Cl [Example 395, 4-((3R)-3-hydroxypyrrolidin-1-yl)-1-(2-chlorophenyl)-7-(trifluoromethyl)hydro-quinazolin-2-one]
< 200 nM | O=c1nc(Nc2ccccn2)c2ccc(C(F)(F)F)nc2n1-c1ccccc1Cl [Example 256, 1-(2-chlorophenyl)-4-(2-pyridylamino)-7-(trifluoromethyl)pyrido[2,3-d]-pyrimidin-2(1H)-one]
< 200 nM | Cc1ccccc1-n1c(=O)nc(N2CC[C@@H](O)C2)c2ccc(C(F)(F)F)cc21 [Example 128, 4-((3R)-3-hydroxypyrrolidin-1-yl)-1-(2-methylphenyl)-7-(trifluoromethyl)hydro-quinazolin-2-one]
< 200 nM | Nc1nc(=O)n(-c2ccccc2Cl)c2nc(C(F)(F)F)ccc12 [Example 167, 4-amino-1-(2-chlorophenyl)-7-(trifluoro-methyl)pyrido[2,3-d]pyrimidin-2(1H)-one]
< 200 nM | COc1nc(=O)n(-c2cccnc2C)c2cc(C(F)(F)F)ccc12 [Example 405]
< 200 nM | N#Cc1cc2c(NCC3CC3)nc(=O)n(-c3ccccc3Cl)c2cc1C1CC1 [Example 409, 1-(2-chlorophenyl)-7-cyclopropyl-4-((cyclopropylmethyl)amino)-2-oxo-1,2-dihydroquinazoline-6-carbonitrile]
< 200 nM | CC1(Nc2nc(=O)n(-c3ccccc3Cl)c3nc(C(F)(F)F)ccc23)CC1 [Example 88, 1-(2-chlorophenyl)-4((1-methylcyclo-propyl)amino)-7-(trifluoromethyl)-pyrido[2,3-d]pyrimidin-2(1H)-one]
< 200 nM | CNc1nc(=O)n(-c2ccccc2Cl)c2cc(C3CC3)ccc12 [Example 426, 1-(2-chlorophenyl)-7-cyclopropyl-4-(methylamino)quinazolin-2(1H)-one]
< 200 nM | CC(C)(C)Nc1nc(=O)n(-c2ccccc2Cl)c2nc(C(F)(F)F)ccc12 [Example 259, 4-[(tert-butyl)amino]-1-(2-chloro-phenyl)-7-(trifluoromethyl)pyrido-[2,3-d]pyrimidin-2(1H)-one]

Same assay, conditions: L-methionine 500 uM, ATP 500 uM, numeric bound

IC50 | SMILES
> 10000 nM | Nc1nc(=O)n(-c2ccccc2)c2cc(Cl)cc(-n3nccn3)c12 [Example 112, 4-amino-7-chloro-1-phenyl-5-(1,2,3-triazol-2-yl)hydroquinazolin-2-one]
> 10000 nM | O=c1ncc2ccc(Cl)cc2n1-c1ccccc1 [Example 191, 7-chloro-1-phenylhydroquinazolin-2-one]
> 10000 nM | Cc1cnc2c(=O)[nH]c(=O)n(-c3ccccc3)c2c1 [Example 193, 7-methyl-1-phenylpyrido[3,2-d]-pyrimidine-2,4(1H,3H)-dione]
> 10000 nM | O=c1[nH]c(=O)n(-c2ccc(O)cc2)c2cc(Cl)ccc12 [Example 229, 7-chloro-1-(4-hydroxyphenyl)-1,3-dihydroquinazoline-2,4-dione]
> 10000 nM | CNc1nc(=O)n(-c2ncc(C)s2)c2cc(Cl)ccc12 [Example 116, 7-chloro-1-(5-methyl(1,3-thiazol-2-yl))-4-(methylamino)hydroquinazolin-2-one]
> 10000 nM | CNc1nc(=O)n(-c2cnccc2O)c2nc(C(F)(F)F)ccc12 [Example 392, 1-(4-hydroxypyridin-3-yl)-4-(methyl-amino)-7-(trifluoromethyl)pyrido[2,3-d]-pyrimidin-2(1H)-one]
> 10000 nM | Cn1ccnc1-n1c(=O)[nH]c(=O)c2ccc(Cl)cc21 [Example 215, 7-chloro-1-(1-methylimidazol-2-yl)-1,3-dihydroquinazoline-2,4-dione]
> 10000 nM | O=c1[nH]c(=O)n(-c2nccc(O)n2)c2cc(Cl)ccc12 [Example 210, 7-chloro-1-(4-hydroxypyrimidin-2-yl)-1,3-dihydroquinazoline-2,4-dione]
